Where two headings read alike, the source gives them in different places.
How the values were obtained:
[1] = system: differentiated 3T3-L1 adipocytes; assay: Neutral lipid accumulation in differentiated 3T3-L1 adipocytes (NR staining); type: cell-based, Mouse; settings: 100 μM, 3 days, differentiated 3T3-L1, relative to control
Experimental: The differentiation of 3T3-L1 cells was performed as described by Ibrahim et al. with slight modifications. The preadipocyte cells were seeded at a concentration of 0.2 × 10^4 per 100 μL into each of the wells of a 96-well plate and were grown at 37°C with 5% CO2 for 3 days, until confluent. On Day 4, differentiation was induced by replacing the medium with 100 μL Differentiation Medium 1 (DM1, DMEM supplemented with final concentrations of 10 μg/mL insulin, 0.5 mM isobutyl methylxanthine, 1 μM dexamethasone, and 2 μM rosiglitazone) for further 3 days. On Day 8, DM1 was replaced with DM2 (DMEM with only 10 μg/mL insulin) for 3 days. […]
With NR staining, the accumulation of neutral lipids was assessed in the differentiated 3T3-L1 cells and OA-induced lipid accumulation in HepG2 cells following treatment with the triterpenoids. […] Background fluorescence was measured at an excitation and an emission wavelength of 485 nm and 590 nm (Ex4850 and Em590), respectively. […] The dye was extracted from the stained cells with 100 μL PBS, and the fluorescence was measured again at Ex450 and Em590. The difference in fluorescence between the extracted dye and background fluorescence was calculated. The percentage of intracellular lipid accumulation relative to the untreated control cells was calculated.

[2] = system: C/EBPα gene; assay: qRT-PCR C/EBPα mRNA expression in differentiated 3T3-L1 adipocytes; type: cell-based, Mouse; settings: 100 μM, 3 days
Experimental: (§1) The mRNA expression of selected lipogenic and lipolytic genes was quantified using qRT–PCR following the established protocol as described by Ndlovu et al.. […] The RNA was extracted with the […] RNA extraction kit. The RNA was then converted into cDNA using an iScript cDNA Synthesis Kit from […] following the manufacturer's protocols. qRT–PCR analysis was performed using Bio-Rad CFX Maestro software. All mRNA expression levels were standardized to ensure consistency using glyceraldehyde 3-phosphate dehydrogenase (GAPDH) as a reference gene. The primers used were designed using the BLAST NCBI online server (https://www.ncbi.nlm.nih.gov/tools/primer-blast/). Data was expressed as fold change relative to the untreated control.

[3] = system: HepG2 cells; assay: Oleic acid-induced neutral lipid accumulation in HepG2 cells (NR staining); type: cell-based, human; settings: 100 μM, 48 h, HepG2 exposed to 1 mM oleic acid
Experimental: (§2) The HepG2 cells were seeded in a 96-well plate at a cell density of 5 × 10^4 and left to attach overnight. The cells were incubated at 37°C, 5% CO2 for 48 h, and 1 mM OA (final concentration) to stimulate lipid accumulation. […] Control cells were exposed to either the vehicle control or sterile PBS.
With NR staining, the accumulation of neutral lipids was assessed in the differentiated 3T3-L1 cells and OA-induced lipid accumulation in HepG2 cells following treatment with the triterpenoids. The cells were washed with PBS and fixed with 4% formaldehyde for 1 h, and then the cells were stained with the NR staining solution (100 μM in 100% DMSO) in the dark for 3 h. Background fluorescence was measured at an excitation and an emission wavelength of 485 nm and 590 nm (Ex4850 and Em590), respectively. The dye solution was then discarded, the wells were then rinsed with PBS, and the plate was blotted dry. The dye was extracted from the stained cells with 100 μL PBS, and the fluorescence was measured again at Ex450 and Em590. The difference in fluorescence between the extracted dye and background fluorescence was calculated. The percentage of intracellular lipid accumulation relative to the untreated control cells was calculated.

[4] = system: AMPK gene; assay: qRT-PCR AMPK mRNA expression in differentiated 3T3-L1 adipocytes; type: cell-based, Mouse; settings: 100 μM, 3 days, not significant versus control
Experimental: as §1

[5] = system: differentiated 3T3-L1 cells; assay: Glycerol release from isoproterenol-stimulated differentiated adipocytes (lipolysis); type: cell-based, Mouse; settings: 100 μM, 3 days, then 100 nM isoproterenol 3 h
Experimental: Subsequently, the cells were exposed to isoproterenol (final concentration of 100 nM) for 3 h to stimulate lipolysis. The glycerol levels released into the medium were used as a measure of lipolysis evaluated using a commercial lipolysis colorimetric assay kit (MAK211) according to the manufacturer's instructions. Cell viability of the lipolysis-induced adipocytes was determined with CV staining.

[6] = system: HepG2 cells; assay: Cell viability assessment (crystal violet), HepG2; type: cell-based, human; settings: triterpenoids at 25 and 100 μM; lovastatin 50 μM
Experimental: The 3T3-L1 and HepG2 cells (at 70%–80% confluence) were seeded at concentrations of 0.2 × 10^4 per 100 μL and 5.0 × 10^4 per 100 μL, respectively, in a 96-well plate. […] Control cells were exposed to either 0.01% methanol (vehicle control) or sterile phosphate buffered saline (PBS) pH 7.4. Following the exposure, the cells were fixed with 20% formalin (final concentration 2% [v/v]) at 37°C for 30 min. The solution was discarded, and the plate was blotted dry. The cells were stained with the addition of 100 μL f CV (0.1% in 200 mM formic acid) to each well. After 30 min at room temperature, the dye solution was removed, and the plate was washed well with tap water and dried. The dye was then extracted from the stained cells with 100 μL of a 10% (v/v) acetic acid solution. The absorbance was measured at 630 nm, and the results were expressed as percentage cell viability relative to the control (cells treated with PBS).

[7] = system: HSL gene; assay: qRT-PCR HSL mRNA expression in differentiated 3T3-L1 adipocytes; type: cell-based, Mouse; settings: 100 μM, 3 days
Experimental: as §1

[8] = target: T1, porcine PNLIP (pancreatic lipase) (Sus scrofa, UniProt P00591); assay: PNLIP inhibition and enzyme kinetics with p-nitrophenyl palmitate; type: biochemical; settings: for Pancreatic lipase Mode of inhibition: Lineweaver–Burk plot
T1 sequence (P00591 1-450): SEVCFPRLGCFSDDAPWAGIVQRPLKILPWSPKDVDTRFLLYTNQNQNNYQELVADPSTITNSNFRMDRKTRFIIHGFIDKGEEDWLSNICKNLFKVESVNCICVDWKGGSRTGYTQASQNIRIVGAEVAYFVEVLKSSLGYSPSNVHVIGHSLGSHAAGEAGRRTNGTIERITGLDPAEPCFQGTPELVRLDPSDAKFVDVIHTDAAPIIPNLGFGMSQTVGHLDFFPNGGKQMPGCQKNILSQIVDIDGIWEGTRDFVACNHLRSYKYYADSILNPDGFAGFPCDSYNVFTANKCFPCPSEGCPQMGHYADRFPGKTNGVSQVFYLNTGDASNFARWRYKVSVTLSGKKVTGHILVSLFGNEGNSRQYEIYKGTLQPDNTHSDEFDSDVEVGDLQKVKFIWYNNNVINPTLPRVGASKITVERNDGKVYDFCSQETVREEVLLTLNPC
Experimental: The PNLIP inhibitory activity of the compounds was tested using p-nitrophenyl palmitate (p-NPP) as an artificial substrate. […] The reaction was initiated by adding 10 mM p-NPP at 37°C for 20 min. Then, the enzyme activity was determined calorimetrically by measuring the release of p-nitrophenol measured at 405 nm using a SpectraMax paradigm microplate reader (Molecular Devices Inc, San Jose, California). The IC50 values were determined using nonlinear regression from the absorbance versus concentration curves.
The modes of enzyme inhibition were determined using the reaction protocol described above. While all the other parameters remained unchanged, the enzyme activity was measured at increasing substrate concentrations (2–10 mM) in the presence and absence of the test compound (inhibitor). Double reciprocal (Lineweaver–Burk) plots were generated and used to determine the inhibition types Km and Vmax. The inhibitory constants (Ki) of the test compounds were also calculated.

[9] = system: differentiated 3T3-L1 adipocytes; assay: Intracellular lipid accumulation in differentiated 3T3-L1 adipocytes (ORO staining); type: cell-based, Mouse; settings: 100 μM, 3 days, differentiated 3T3-L1, relative to control
Experimental: The differentiation of 3T3-L1 cells was performed as described by Ibrahim et al. with slight modifications. The preadipocyte cells were seeded at a concentration of 0.2 × 10^4 per 100 μL into each of the wells of a 96-well plate and were grown at 37°C with 5% CO2 for 3 days, until confluent. On Day 4, differentiation was induced by replacing the medium with 100 μL Differentiation Medium 1 (DM1, DMEM supplemented with final concentrations of 10 μg/mL insulin, 0.5 mM isobutyl methylxanthine, 1 μM dexamethasone, and 2 μM rosiglitazone) for further 3 days. On Day 8, DM1 was replaced with DM2 (DMEM with only 10 μg/mL insulin) for 3 days. Finally, DM2 was replaced with only DMEM, and the cells were exposed to the different concentrations (1–100 μM) of the test compounds for a further 3 days. Control cells were exposed to either the vehicle control or sterile PBS.
The ORO staining technique was used to detect lipid droplets in both differentiated adipocytes and OA-exposed hepatocytes. […] The ORO dye was then extracted with 60% isopropanol, and the absorbance was measured at 405 nm. For the 3T3-L1 cells, the percentage of lipid accumulation was relative to the control cells (PBS-treated) cells, with 100% lipid formation, while for HepG2, the results were expressed as the percentage of lipid accumulation relative to cells exposed to OA.

[10] = system: PPARγ gene; assay: qRT-PCR PPARγ mRNA expression in differentiated 3T3-L1 adipocytes; type: cell-based, Mouse; settings: 100 μM, 3 days
Experimental: as §1

[11] = system: HepG2 cells; assay: Oleic acid-induced hepatic lipid accumulation in HepG2 cells (ORO staining); type: cell-based, human; settings: 100 μM, 48 h, HepG2 exposed to 1 mM oleic acid
Experimental: as §2
The ORO staining technique was used to detect lipid droplets in both differentiated adipocytes and OA-exposed hepatocytes. The cells were fixed with 2% (v/v) formaldehyde for 30 min at 37°C. The formaldehyde was then discarded, and the plates were air-dried. The fixed cells were stained with ORO staining solution (three parts of 0.5% ORO (w/v) in 60% isopropyl alcohol and two parts of water) for 1 h. After staining, the excess ORO was discarded, and the plates were rinsed with water and dried. Microscopic images were acquired with an Olympus microscope (Olympus, Tokyo, Japan). The ORO dye was then extracted with 60% isopropanol, and the absorbance was measured at 405 nm. For the 3T3-L1 cells, the percentage of lipid accumulation was relative to the control cells (PBS-treated) cells, with 100% lipid formation, while for HepG2, the results were expressed as the percentage of lipid accumulation relative to cells exposed to OA.

Row | SMILES | reduction in neutral lipid accumulation (NR staining) [1] [%] | reduction of C/EBPα gene expression [2] [%] | reduction in neutral lipid accumulation (NR staining) [3] [%] | increase in the expression of the AMPK gene [4] [%] | decrease in glycerol release [5] [%] | cytotoxicity in the HepG2 model (abstract) [6] | reduction of HSL gene expression [7] [%] | Pancreatic lipase Mode of inhibition [8] | Ki ([8]; Lineweaver–Burk, substrate 2–10 mM, mean ± SEM (n = 3), read-out: Pancreatic lipase Ki) [µM] | IC50 ([8]; porcine PNLIP, p-NPP substrate, pH 7.4, 37°C, mean ± SEM (n = 3), read-out: Pancreatic lipase IC50) [µM] | decrease in lipid accumulation (ORO staining) [9] [%] | reduction of PPARγ gene expression [10] [%] | reduction of OA-induced lipid accumulation (ORO staining) [11] [%] | IC50 [8] [µM] | Ki [8] [µM]
1 | C/C(=C/CC[C@H](C(=O)O)C1CC[C@]2(C)C3=CCC4C(C)(C)[C@H](O)CC[C@]4(C)C3CC[C@@]12C)CO (stereo partly drawn) [ARM-2, 3α,26-dihydroxytirucalla-7,24-dien-21-oic acid] | 19.27 | 55.65 | 40 | 39.10 | 36.47 | lacked cytotoxicity | 60.38 | Noncompetitive | 52.9 ± 7.19 | 35.8 ± 12.4 | 22.21 | 59.30 | 31.56 | – | –
2 | CCCCCCCCCCC[C@@H](C[C@@H]1OC(=O)[C@H]1CCCCCC)OC(=O)[C@H](CC(C)C)NC=O [Orlistat, orlistat, reference compound] | – | – | – | – | – | – | – | Uncompetitive | – | – | – | – | – | – | –
3 | CC(C)=CCCC(C(=O)O)C1CCC2(C)C3CCC4C(C)(CCC(O)C4(C)C)C3=CCC12C (stereo not drawn) [RA-5, 3β-hydroxylanosta-9,24-dien-21-oic acid] | 10.37 | 49.72 | 39 | 28.05 | 34.72 | lacked cytotoxicity | 66.54 | mixed type of inhibition | – | – | 20.67 | 77.40 | 23.47 | 27.6 ± 8.51 | 28.7 ± 8.84
